Measured values: the kinase profiling compilation of Christmann-Franck et al. (2016)

Key:
Assay in all cases: Flashplate
CLK2 (human) = CLK2 (human) (UniProt P49760)
BRSK1 (human) = BRSK1 (human) (UniProt Q8TDC3)
CHEK1 (human) = CHEK1 (human) (UniProt O14757)
MAPK12 (human) = MAPK12 (human) (UniProt P53778)
DCLK1 (human) = DCLK1 (human) (UniProt O15075)
MAP4K2 (human) = MAP4K2 (human) (UniProt Q12851)
PRKD2 (human) = PRKD2 (human) (UniProt Q9BZL6)
PRKAA1 (human) = PRKAA1 (human) (UniProt Q13131)
MAPKAPK2 (human) = MAPKAPK2 (human) (UniProt P49137)
CAMK2G (human) = CAMK2G (human) (UniProt Q13555)
CDC42BPA (human) = CDC42BPA (human) (UniProt Q5VT25)
TSSK2 (human) = TSSK2 (human) (UniProt Q96PF2)
CSNK1G3 (human) = CSNK1G3 (human) (UniProt Q9Y6M4)
CAMK2D (human) = CAMK2D (human) (UniProt Q13557)
CSNK1G1 (human) = CSNK1G1 (human) (UniProt Q9HCP0)
PAK4 (human) = PAK4 (human) (UniProt O96013)
STK17A (human) = STK17A (human) (UniProt Q9UEE5)
HIPK2 (human) = HIPK2 (human) (UniProt Q9H2X6)
CSNK1D (human) = CSNK1D (human) (UniProt P48730)
DYRK4 (human) = DYRK4 (human) (UniProt Q9NR20)
RPS6KA3 KD1 KD2 (human) = RPS6KA3 KD1 KD2 (human) (UniProt P51812)
IRAK4 (human) = IRAK4 (human) (UniProt Q9NWZ3)
TAOK1 (human) = TAOK1 (human) (UniProt Q7L7X3)
PRKD3 (human) = PRKD3 (human) (UniProt O94806)
MAP4K4 (human) = MAP4K4 (human) (UniProt O95819)
PRKACA (human) = PRKACA (human) (UniProt P17612)
CSNK1A1 (human) = CSNK1A1 (human) (UniProt P48729)
RPS6KB1 (human) = RPS6KB1 (human) (UniProt P23443)
PBK (human) = PBK (human) (UniProt Q96KB5)
MAPKAPK5 (human) = MAPKAPK5 (human) (UniProt Q8IW41)
PRKCI (human) = PRKCI (human) (UniProt P41743)
GSK3B (human) = GSK3B (human) (UniProt P49841)
AKT1 (human) = AKT1 (human) (UniProt P31749)
CSNK1G2 (human) = CSNK1G2 (human) (UniProt P78368)
AKT2 (human) = AKT2 (human) (UniProt P31751)
TSSK1B (human) = TSSK1B (human) (UniProt Q9BXA7)
CAMK1 (human) = CAMK1 (human) (UniProt Q14012)
PAK1 (human) = PAK1 (human) (UniProt Q13153)
PRKCD (human) = PRKCD (human) (UniProt Q05655)
PKN2 (human) = PKN2 (human) (UniProt Q16513)
GSK3A (human) = GSK3A (human) (UniProt P49840)
Sequence of GSK3A (human) (P49840 whole entry, looked up): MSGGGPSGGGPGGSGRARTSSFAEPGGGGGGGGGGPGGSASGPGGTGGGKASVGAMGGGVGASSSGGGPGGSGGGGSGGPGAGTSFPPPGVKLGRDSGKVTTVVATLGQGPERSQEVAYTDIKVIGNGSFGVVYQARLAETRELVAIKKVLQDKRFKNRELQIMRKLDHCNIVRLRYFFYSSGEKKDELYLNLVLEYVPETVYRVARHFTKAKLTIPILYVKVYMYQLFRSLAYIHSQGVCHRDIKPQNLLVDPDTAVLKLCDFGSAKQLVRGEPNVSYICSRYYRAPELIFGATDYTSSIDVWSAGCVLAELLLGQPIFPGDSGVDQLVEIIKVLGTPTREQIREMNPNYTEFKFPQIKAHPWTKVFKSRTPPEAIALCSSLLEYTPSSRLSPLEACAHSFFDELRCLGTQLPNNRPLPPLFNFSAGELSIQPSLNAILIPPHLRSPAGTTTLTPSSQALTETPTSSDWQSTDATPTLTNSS

Sequence of PRKCD (human) (Q05655 whole entry, looked up): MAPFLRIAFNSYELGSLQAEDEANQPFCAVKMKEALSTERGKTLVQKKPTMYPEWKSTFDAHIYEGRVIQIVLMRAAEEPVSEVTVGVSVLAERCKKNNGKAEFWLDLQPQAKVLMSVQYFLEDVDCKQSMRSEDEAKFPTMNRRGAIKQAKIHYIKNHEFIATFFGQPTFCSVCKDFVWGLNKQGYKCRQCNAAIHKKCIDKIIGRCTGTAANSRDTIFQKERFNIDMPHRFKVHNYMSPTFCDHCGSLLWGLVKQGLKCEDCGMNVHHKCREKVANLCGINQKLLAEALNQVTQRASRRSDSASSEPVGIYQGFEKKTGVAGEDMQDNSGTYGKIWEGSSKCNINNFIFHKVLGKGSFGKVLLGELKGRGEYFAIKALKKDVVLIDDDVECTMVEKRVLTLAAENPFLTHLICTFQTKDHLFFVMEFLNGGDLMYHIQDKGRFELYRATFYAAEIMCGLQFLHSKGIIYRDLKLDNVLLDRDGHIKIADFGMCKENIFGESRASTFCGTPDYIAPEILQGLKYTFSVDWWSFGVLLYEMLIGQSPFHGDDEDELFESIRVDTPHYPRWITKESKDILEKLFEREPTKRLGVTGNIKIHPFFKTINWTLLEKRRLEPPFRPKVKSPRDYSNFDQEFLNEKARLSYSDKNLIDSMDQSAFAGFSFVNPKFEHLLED
Sequence of DYRK4 (human) (Q9NR20 whole entry, looked up): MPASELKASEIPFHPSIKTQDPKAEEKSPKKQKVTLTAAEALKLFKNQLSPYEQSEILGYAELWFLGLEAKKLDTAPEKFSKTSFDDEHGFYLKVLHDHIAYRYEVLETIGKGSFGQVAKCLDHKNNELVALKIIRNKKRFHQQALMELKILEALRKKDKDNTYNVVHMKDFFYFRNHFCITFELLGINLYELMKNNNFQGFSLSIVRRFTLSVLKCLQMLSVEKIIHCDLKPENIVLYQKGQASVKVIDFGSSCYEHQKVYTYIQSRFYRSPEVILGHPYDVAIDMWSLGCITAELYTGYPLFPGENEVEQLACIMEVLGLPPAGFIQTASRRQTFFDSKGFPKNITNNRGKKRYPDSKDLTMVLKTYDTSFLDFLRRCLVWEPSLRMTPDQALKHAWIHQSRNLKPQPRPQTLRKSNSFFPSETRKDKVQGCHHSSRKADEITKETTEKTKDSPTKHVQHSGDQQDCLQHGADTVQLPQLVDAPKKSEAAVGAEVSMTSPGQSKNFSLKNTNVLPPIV
Sequence of RPS6KB1 (human) (P23443 whole entry, looked up): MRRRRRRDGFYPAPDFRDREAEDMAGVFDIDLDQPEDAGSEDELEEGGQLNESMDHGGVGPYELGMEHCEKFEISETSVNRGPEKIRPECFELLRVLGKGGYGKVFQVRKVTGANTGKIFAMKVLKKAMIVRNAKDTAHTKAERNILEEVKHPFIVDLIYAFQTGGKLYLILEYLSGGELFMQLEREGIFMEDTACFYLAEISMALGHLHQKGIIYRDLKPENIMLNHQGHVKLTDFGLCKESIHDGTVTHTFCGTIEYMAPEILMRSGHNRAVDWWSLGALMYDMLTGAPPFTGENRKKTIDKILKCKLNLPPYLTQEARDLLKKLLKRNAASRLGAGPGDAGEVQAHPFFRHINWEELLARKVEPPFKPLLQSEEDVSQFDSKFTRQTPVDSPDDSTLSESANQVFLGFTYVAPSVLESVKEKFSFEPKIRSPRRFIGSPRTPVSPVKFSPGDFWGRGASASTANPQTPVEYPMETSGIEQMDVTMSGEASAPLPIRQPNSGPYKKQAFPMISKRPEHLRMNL
Sequence of PKN2 (human) (Q16513 whole entry, looked up): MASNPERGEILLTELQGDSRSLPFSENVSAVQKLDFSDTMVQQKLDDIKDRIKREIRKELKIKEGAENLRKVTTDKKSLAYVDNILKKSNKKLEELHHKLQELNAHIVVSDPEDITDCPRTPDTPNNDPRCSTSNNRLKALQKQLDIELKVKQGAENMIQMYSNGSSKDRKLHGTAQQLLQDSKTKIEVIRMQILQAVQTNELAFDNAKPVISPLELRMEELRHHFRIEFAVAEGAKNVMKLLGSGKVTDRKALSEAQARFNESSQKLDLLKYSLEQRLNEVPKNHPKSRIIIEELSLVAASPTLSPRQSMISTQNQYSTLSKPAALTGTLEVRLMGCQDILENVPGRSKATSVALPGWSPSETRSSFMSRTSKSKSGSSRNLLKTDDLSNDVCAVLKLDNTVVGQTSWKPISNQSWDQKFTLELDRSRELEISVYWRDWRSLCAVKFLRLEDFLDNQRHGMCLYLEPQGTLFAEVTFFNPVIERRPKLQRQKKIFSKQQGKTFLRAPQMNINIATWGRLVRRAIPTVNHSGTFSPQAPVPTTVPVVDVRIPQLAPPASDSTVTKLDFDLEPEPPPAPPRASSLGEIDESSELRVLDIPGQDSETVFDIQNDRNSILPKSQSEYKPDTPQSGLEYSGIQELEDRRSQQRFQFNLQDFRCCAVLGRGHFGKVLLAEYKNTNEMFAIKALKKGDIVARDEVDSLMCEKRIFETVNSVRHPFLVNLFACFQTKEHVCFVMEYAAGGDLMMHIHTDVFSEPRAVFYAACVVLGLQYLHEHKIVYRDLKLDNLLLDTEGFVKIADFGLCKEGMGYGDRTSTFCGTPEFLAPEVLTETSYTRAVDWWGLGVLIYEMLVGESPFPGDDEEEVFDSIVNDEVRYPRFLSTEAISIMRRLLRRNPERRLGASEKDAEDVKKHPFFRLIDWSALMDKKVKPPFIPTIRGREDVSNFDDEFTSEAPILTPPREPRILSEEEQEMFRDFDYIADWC
Sequence of PRKCI (human) (P41743 whole entry, looked up): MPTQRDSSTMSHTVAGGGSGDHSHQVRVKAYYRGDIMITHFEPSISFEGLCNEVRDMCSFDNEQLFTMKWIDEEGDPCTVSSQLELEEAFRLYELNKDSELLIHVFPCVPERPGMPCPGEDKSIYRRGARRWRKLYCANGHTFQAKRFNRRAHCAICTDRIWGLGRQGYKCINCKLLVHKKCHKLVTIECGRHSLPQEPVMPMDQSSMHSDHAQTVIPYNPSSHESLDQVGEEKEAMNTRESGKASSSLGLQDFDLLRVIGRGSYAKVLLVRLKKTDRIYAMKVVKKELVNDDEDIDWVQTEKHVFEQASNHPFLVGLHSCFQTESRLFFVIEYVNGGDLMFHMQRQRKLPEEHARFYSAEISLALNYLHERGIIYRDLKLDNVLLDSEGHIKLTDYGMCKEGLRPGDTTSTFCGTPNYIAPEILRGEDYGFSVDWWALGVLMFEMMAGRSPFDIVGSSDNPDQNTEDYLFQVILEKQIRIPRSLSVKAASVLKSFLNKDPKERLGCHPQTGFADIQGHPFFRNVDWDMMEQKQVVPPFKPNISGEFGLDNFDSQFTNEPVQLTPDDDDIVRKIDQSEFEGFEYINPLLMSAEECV
Sequence of DCLK1 (human) (O15075 whole entry, looked up): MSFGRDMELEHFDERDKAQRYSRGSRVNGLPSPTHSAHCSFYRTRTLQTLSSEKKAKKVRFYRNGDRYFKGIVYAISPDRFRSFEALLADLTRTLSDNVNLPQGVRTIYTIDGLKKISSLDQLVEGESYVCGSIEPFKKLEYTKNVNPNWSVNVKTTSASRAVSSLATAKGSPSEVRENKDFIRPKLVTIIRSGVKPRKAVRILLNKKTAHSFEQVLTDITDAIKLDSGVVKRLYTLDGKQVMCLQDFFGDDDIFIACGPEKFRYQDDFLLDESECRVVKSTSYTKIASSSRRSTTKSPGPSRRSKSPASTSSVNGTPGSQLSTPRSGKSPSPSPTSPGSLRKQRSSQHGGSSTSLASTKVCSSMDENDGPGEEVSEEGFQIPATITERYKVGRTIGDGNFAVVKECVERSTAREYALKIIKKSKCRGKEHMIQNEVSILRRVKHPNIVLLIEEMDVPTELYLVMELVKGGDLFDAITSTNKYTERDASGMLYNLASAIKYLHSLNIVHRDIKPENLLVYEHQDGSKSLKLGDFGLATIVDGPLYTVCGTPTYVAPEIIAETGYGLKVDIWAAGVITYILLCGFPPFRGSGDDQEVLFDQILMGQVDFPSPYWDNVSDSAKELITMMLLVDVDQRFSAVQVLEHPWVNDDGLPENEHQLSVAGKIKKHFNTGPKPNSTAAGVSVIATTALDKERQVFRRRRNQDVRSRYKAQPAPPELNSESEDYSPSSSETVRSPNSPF
Sequence of TSSK1B (human) (Q9BXA7 whole entry, looked up): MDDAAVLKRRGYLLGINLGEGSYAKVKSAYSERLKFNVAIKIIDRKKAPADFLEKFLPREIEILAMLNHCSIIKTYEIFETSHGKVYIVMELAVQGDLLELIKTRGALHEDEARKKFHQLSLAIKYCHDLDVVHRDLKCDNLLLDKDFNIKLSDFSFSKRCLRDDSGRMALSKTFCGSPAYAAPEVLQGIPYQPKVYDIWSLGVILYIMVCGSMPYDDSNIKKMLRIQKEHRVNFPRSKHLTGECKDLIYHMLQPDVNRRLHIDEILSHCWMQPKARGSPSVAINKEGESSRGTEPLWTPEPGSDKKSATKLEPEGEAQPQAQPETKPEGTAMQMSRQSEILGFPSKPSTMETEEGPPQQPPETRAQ

Ki (CLK2 (human)): 0.631 µM
Ki (BRSK1 (human)): 0.794 µM
Ki (CHEK1 (human)): 1.26 µM
Ki (MAPK12 (human)): > 6.31 µM
Ki (DCLK1 (human)): > 10 µM
Ki (MAP4K2 (human)): 0.0501 µM
Ki (PRKD2 (human)): 0.158 µM
Ki (PRKAA1 (human)): > 1.58 µM
Ki (MAPKAPK2 (human)): > 7.94 µM
Ki (CAMK2G (human)): 1.58 µM
Ki (CDC42BPA (human)): > 10 µM
Ki (TSSK2 (human)): > 1.58 µM
Ki (CSNK1G3 (human)): 1 µM
Ki (CAMK2D (human)): 1 µM
Ki (CSNK1G1 (human)): > 6.31 µM
Ki (PAK4 (human)): > 5.01 µM
Ki (STK17A (human)): 0.0398 µM
Ki (HIPK2 (human)): 0.2 µM
Ki (CSNK1D (human)): 0.0316 µM
Ki (DYRK4 (human)): > 7.94 µM
Ki (RPS6KA3 KD1 KD2 (human)): 0.398 µM
Ki (IRAK4 (human)): 0.158 µM
Ki (TAOK1 (human)): 5.01 µM
Ki (PRKD3 (human)): 0.1 µM
Ki (MAP4K4 (human)): 0.316 µM
Ki (PRKACA (human)): > 7.94 µM
Ki (CSNK1A1 (human)): 0.316 µM
Ki (RPS6KB1 (human)): 0.126 µM
Ki (PBK (human)): 1 µM
Ki (MAPKAPK5 (human)): > 1.58 µM
Ki (PRKCI (human)): > 5.01 µM
Ki (GSK3B (human)): 0.316 µM
Ki (AKT1 (human)): > 7.94 µM
Ki (CSNK1G2 (human)): 2 µM
Ki (AKT2 (human)): > 7.94 µM
Ki (TSSK1B (human)): > 1.58 µM
Ki (CAMK1 (human)): > 1.58 µM
Ki (PAK1 (human)): > 10 µM
Ki (PRKCD (human)): > 7.94 µM
Ki (PKN2 (human)): > 7.94 µM
Ki (GSK3A (human)): 1.26 µM
Structure (SMILES): O=C1c2ccccc2-c2n[nH]c3cccc1c23
